# Literature values in PMC8557155 (Annals of Nuclear Medicine, 2021).
# Settings: rat model, lysine-protected rats; cited from earlier work
smiles,measurement,value
NCCCC[C@H](N)C(=O)O [lysine],Reduction of 177Lu quantified in the kidney,approximately 45%
